Laboratory results reported in ChEMBL document CHEMBL5543097, “Synthesis and structure-activity relationships of novel 14-membered 2-fluoro ketolides with structural modification at the C11 position” (Eur J Med Chem, 2024).
In brackets after ≈: the same amount, converted by molar mass.

Assays:
[1] = tested on: Staphylococcus epidermidis; assay: Potency index, ratio of telithromycin MIC to test compound MIC for antibacterial activity against erythromycin-resistant Staphylococcus epidermidis 19-4 assessed as inhibition of visible bacterial growth incubated for 18 hrs by broth microdilution method; assay type: functional
Streptococcus pneumoniae [2] = assay: Antibacterial activity against erythromycin-resistant Streptococcus pneumoniae SPN19-13 assessed as inhibition of visible bacterial growth incubated for 18 hrs by broth microdilution method; assay type: functional
Moraxella catarrhalis [3] = assay: Antibacterial activity against Moraxella catarrhalis BCA 19-5 assessed as inhibition of bacterial growth incubated for 24 hrs by CLSI based broth microdilution method; assay type: functional; settings: Moraxella catarrhalis, BCA 19-5, 24 h, read-out: MIC
Haemophilus influenzae [4] = assay: Antibacterial activity against Haemophilus influenzae HIN 19-18 assessed as inhibition of bacterial growth incubated for 20 to 24 hrs by CLSI based broth microdilution method; assay type: functional; settings: HIN 19-18, time 20-24 hrs
Streptococcus pyogenes = assay: Antibacterial activity against erythromycin-resistant Streptococcus pyogenes ATCC 19615 assessed as inhibition of visible bacterial growth incubated for 18 hrs by broth microdilution method; assay type: functional
[5] = tested on: Staphylococcus epidermidis; assay: Potency index, ratio of telithromycin MIC to test compound MIC for antibacterial activity against erythromycin-resistant Staphylococcus epidermidis 19-5 assessed as inhibition of visible bacterial growth incubated for 18 hrs by broth microdilution method; assay type: functional
[6] = tested on: Staphylococcus epidermidis; assay: Potency index, ratio of telithromycin MIC to test compound MIC for antibacterial activity against erythromycin-resistant Staphylococcus epidermidis 19-9 assessed as inhibition of visible bacterial growth incubated for 18 hrs by broth microdilution method; assay type: functional
[7] = tested on: Staphylococcus epidermidis; assay: Antibacterial activity against erythromycin-resistant Staphylococcus epidermidis 19-8 assessed as inhibition of visible bacterial growth incubated for 18 hrs by broth microdilution method; assay type: functional
[8] = tested on: Staphylococcus epidermidis; assay: Antibacterial activity against erythromycin-resistant Staphylococcus epidermidis 19-4 assessed as inhibition of visible bacterial growth incubated for 18 hrs by broth microdilution method; assay type: functional
[9] = tested on: Staphylococcus epidermidis; assay: Potency index, ratio of telithromycin MIC to test compound MIC for antibacterial activity against erythromycin-resistant Staphylococcus epidermidis 19-11 assessed as inhibition of visible bacterial growth incubated for 18 hrs by broth microdilution method; assay type: functional
[10] = tested on: Staphylococcus epidermidis; assay: Potency index, ratio of telithromycin MIC to test compound MIC for antibacterial activity against erythromycin-resistant Staphylococcus epidermidis 19-6 assessed as inhibition of visible bacterial growth incubated for 18 hrs by broth microdilution method; assay type: functional
Streptococcus agalactiae [11] = assay: Antibacterial activity against erythromycin-resistant Streptococcus agalactiae 19-9 assessed as inhibition of visible bacterial growth incubated for 18 hrs by broth microdilution method; assay type: functional
[12] = Cytotoxicity against mouse AML12 cells assessed as reduction in cell viability incubated for 48 hrs by MTT assay; assay type: toxicity, cell-based
[13] = tested on: Staphylococcus epidermidis; assay: Potency index, ratio of telithromycin MIC to test compound MIC for antibacterial activity against erythromycin-resistant Staphylococcus epidermidis 19-8 assessed as inhibition of visible bacterial growth incubated for 18 hrs by broth microdilution method; assay type: functional
[14] = tested on: Staphylococcus epidermidis; assay: Antibacterial activity against erythromycin-resistant Staphylococcus epidermidis 19-11 assessed as inhibition of visible bacterial growth incubated for 18 hrs by broth microdilution method; assay type: functional
Moraxella catarrhalis [15] = assay: Antibacterial activity against Moraxella catarrhalis BCA 19-31 assessed as inhibition of bacterial growth incubated for 24 hrs by CLSI based broth microdilution method; assay type: functional; settings: BCA 19-31, 24 h
[16] = tested on: Staphylococcus epidermidis; assay: Antibacterial activity against erythromycin-resistant Staphylococcus epidermidis 19-5 assessed as inhibition of visible bacterial growth incubated for 18 hrs by broth microdilution method; assay type: functional
Haemophilus influenzae [17] = assay: Antibacterial activity against Haemophilus influenzae HIN 19-15 assessed as inhibition of bacterial growth incubated for 20 to 24 hrs by CLSI based broth microdilution method; assay type: functional; settings: time 20-24 hrs
Streptococcus agalactiae [18] = assay: Antibacterial activity against erythromycin-resistant Streptococcus agalactiae 19-8 assessed as inhibition of visible bacterial growth incubated for 18 hrs by broth microdilution method; assay type: functional
Streptococcus pneumoniae [19] = assay: Antibacterial activity against erythromycin-resistant Streptococcus pneumoniae SPN19-8 assessed as inhibition of visible bacterial growth incubated for 18 hrs by broth microdilution method; assay type: functional
Streptococcus pneumoniae [20] = assay: Antibacterial activity against erythromycin-resistant Streptococcus pneumoniae SPN19-14 assessed as inhibition of visible bacterial growth incubated for 18 hrs by broth microdilution method; assay type: functional
[21] = tested on: Staphylococcus epidermidis; assay: Antibacterial activity against erythromycin-resistant Staphylococcus epidermidis 19-9 assessed as inhibition of visible bacterial growth incubated for 18 hrs by broth microdilution method; assay type: functional
[22] = tested on: Staphylococcus epidermidis; assay: Antibacterial activity against erythromycin-resistant Staphylococcus epidermidis 19-6 assessed as inhibition of visible bacterial growth incubated for 18 hrs by broth microdilution method; assay type: functional
Moraxella catarrhalis [23] = assay: Antibacterial activity against Moraxella catarrhalis BCA 19-6 assessed as inhibition of bacterial growth incubated for 24 hrs by CLSI based broth microdilution method; assay type: functional
Haemophilus influenzae [24] = assay: Antibacterial activity against Haemophilus influenzae HIN 20-18 assessed as inhibition of bacterial growth incubated for 20 to 24 hrs by CLSI based broth microdilution method; assay type: functional; settings: time 20-24 hrs
Streptococcus pneumoniae [25] = assay: Potency index, ratio of telithromycin MIC to test compound MIC for antibacterial activity against Streptococcus pneumoniae SPN19-14 assessed as inhibition of visible bacterial growth incubated for 18 hrs by broth microdilution method; assay type: functional
Streptococcus pneumoniae [26] = assay: Potency index, ratio of telithromycin MIC to test compound MIC for antibacterial activity against Streptococcus pneumoniae SPN19-13 assessed as inhibition of visible bacterial growth incubated for 18 hrs by broth microdilution method; assay type: functional
Streptococcus pneumoniae [27] = assay: Potency index, ratio of telithromycin MIC to test compound MIC for antibacterial activity against Streptococcus pneumoniae SPN19-8 assessed as inhibition of visible bacterial growth incubated for 18 hrs by broth microdilution method; assay type: functional
[28] = Moraxella catarrhalis, BCA 19-6, 24 h, read-out: MIC

Row | Structure (SMILES) | Ratio [1] | MIC (Streptococcus pneumoniae [2]) [µg/mL] | MIC (Moraxella catarrhalis [3]) [µg/mL] | MIC (Haemophilus influenzae [4]) [µg/mL] | MIC (Streptococcus pyogenes) [µg/mL] | MIC [7] [µg/mL] | MIC [8] [µg/mL] | MIC (Streptococcus agalactiae [11]) [µg/mL] | CC50 at 48 h [12] [µM] | MIC [14] [µg/mL] | MIC [16] [µg/mL] | MIC (Haemophilus influenzae [17]) [µg/mL] | MIC (Streptococcus pneumoniae [19]) [µg/mL] | MIC (Streptococcus pneumoniae [20]) [µg/mL] | MIC [21] [µg/mL] | MIC [22] [µg/mL] | MIC (Moraxella catarrhalis [23]; [28]) [µg/mL] | Ratio (Streptococcus pneumoniae [25]) | Ratio (Streptococcus pneumoniae [26]) | Ratio (Streptococcus pneumoniae [27]) | other results
1 | CC[C@H]1OC(=O)[C@@](C)(F)C(=O)[C@H](C)[C@@H](O[C@@H]2O[C@H](C)C[C@H](N(C)C)[C@H]2O)[C@](C)(OC)C[C@@H](C)C(=O)[C@H](C)[C@H]2N(CCCOC(=O)Nc3cccc(SC)c3)C(=O)O[C@]12C | 4 | < 0.03 | < 0.03 | 1 (≈ 1.17 µM) | < 0.03 | < 0.03 | < 0.03 | 0.125 (≈ 0.146 µM) | 34.4 | 0.03 (≈ 0.0351 µM) | 0.03 (≈ 0.0351 µM) | 2 (≈ 2.34 µM) | < 0.03 | < 0.03 | < 0.03 | 0.03 (≈ 0.0351 µM) | < 0.03 | – | – | – | Ratio [5]: 4; Ratio [6]: 4; Ratio [9]: 4; Ratio [10]: 4; Ratio [13]: 4; MIC (Moraxella catarrhalis [15]): < 0.03 µg/mL; MIC (Streptococcus agalactiae [18]): < 0.03 µg/mL
2 | CC[C@H]1OC(=O)[C@@](C)(F)C(=O)[C@H](C)[C@@H](O[C@@H]2O[C@H](C)C[C@H](N(C)C)[C@H]2O)[C@](C)(OC)C[C@@H](C)C(=O)[C@H](C)[C@H]2N(CCCOC(=O)Nc3ccc4c(c3)OCO4)C(=O)O[C@]12C | – | < 0.03 | < 0.03 | – | < 0.03 | < 0.03 | 0.06 (≈ 0.0704 µM) | 0.125 (≈ 0.147 µM) | 85.6 | < 0.03 | < 0.03 | 4 (≈ 4.7 µM) | 0.03 (≈ 0.0352 µM) | < 0.03 | 0.125 (≈ 0.147 µM) | 0.06 (≈ 0.0704 µM) | < 0.03 | <4 | <4 | <4 | MIC (Haemophilus influenzae [24]): 8 µg/mL (≈ 9.39 µM); MIC (Streptococcus agalactiae [18]): < 0.03 µg/mL; MIC (Moraxella catarrhalis [23]; 24 h): 0.06 µg/mL (≈ 0.0704 µM)
3 | CC[C@H]1OC(=O)[C@@](C)(F)C(=O)[C@H](C)[C@@H](O[C@@H]2O[C@H](C)C[C@H](N(C)C)[C@H]2O)[C@](C)(OC)C[C@@H](C)C(=O)[C@H](C)[C@H]2N(CCCOC(=O)Nc3ccc4sccc4c3)C(=O)O[C@]12C | 4 | < 0.03 | – | – | < 0.03 | 0.06 (≈ 0.0694 µM) | 0.03 (≈ 0.0347 µM) | 0.25 (≈ 0.289 µM) | 11.6 | < 0.03 | < 0.03 | – | 0.06 (≈ 0.0694 µM) | 0.03 (≈ 0.0347 µM) | 1 (≈ 1.16 µM) | 0.06 (≈ 0.0694 µM) | – | <4 | <4 | <4 | Ratio [5]: 4; Ratio [6]: 4; Ratio [9]: 4; Ratio [10]: 4; Ratio [13]: 4
4 | CC[C@H]1OC(=O)[C@@](C)(F)C(=O)[C@H](C)[C@@H](O[C@@H]2O[C@H](C)C[C@H](N(C)C)[C@H]2O)[C@](C)(OC)C[C@@H](C)C(=O)[C@H](C)[C@H]2N(CCCOC(=O)Nc3cccs3)C(=O)O[C@]12C | – | 0.25 (≈ 0.307 µM) | 0.25 (≈ 0.307 µM) | 4 (≈ 4.91 µM) | < 0.03 | 0.06 (≈ 0.0737 µM) | 0.25 (≈ 0.307 µM) | 1 (≈ 1.23 µM) | > 100 | < 0.03 | < 0.03 | 4 (≈ 4.91 µM) | 0.125 (≈ 0.154 µM) | 0.25 (≈ 0.307 µM) | 0.5 (≈ 0.614 µM) | 0.06 (≈ 0.0737 µM) | 0.25 (≈ 0.307 µM) | <4 | <4 | <4 | MIC (Haemophilus influenzae [24]): 8 µg/mL (≈ 9.83 µM); MIC (Moraxella catarrhalis [15]): 0.06 µg/mL (≈ 0.0737 µM)
